Values joined by “and” are separate entries in the source; they are usually repeats but may differ in a detail not shown here. Equal entries are not always repeated. Where two headings read alike, the source gives them in different places.
Tests used:
[1] = system: Clone A cells (HCV genotype 1b replicon in Huh-7); assay: HCV replicon 3-day assay, HCV RNA by TaqMan RT-PCR; format: cell-based, Hepatitis C virus; conditions: for EC50: Hepatitis C virus, Huh-7
Protocol: The level of HCV RNA from cultures was expressed as % HCV RNA relative to control. Each point represents an average of four replicates. The effective concentration that inhibits 50% of HCV RNA levels (EC50) in the replicon-containing cells is indicated.
The levels of HCV RNA were determined using a quantitative TAQMAN® RT-PCR (PE Applied Biosystems, Foster City, Calif.).
(§1) Drug susceptibility of the replicon-containing cells to various compounds was evaluated as described previously (Howe et al. (2004) Antimicrobial Agents Chem. 48:4813-21). Briefly, cells were treated with increasing concentrations of compounds in medium containing 2% FCS and no G418 for three days at 37° C. and 5% CO2. After incubation, total RNA from the replicon-containing cells was isolated. The levels of HCV, glyceraldehyde 3-phosphate dehydrogenase (GAPDH) and ribosomal (rRNA) RNAs were quantified using TAQMAN® (PE Applied Biosystems, Foster City, Calif.) reverse transcriptase PCR reactions. The amounts of HCV, 18S ribosomal, and GAPDH RNAs in each sample were estimated by comparing the number of cycles during the exponential phase of the PCR amplification with those in the corresponding standard curves. HCV RNA standards used for the construction of the standard curve were prepared by extracting the total RNA from the Clone A cells. The RNA sample was sent to National Genetics Institute to quantify HCV RNA. Total RNA extracted from Clone A cells was quantified by O.D.260 measurement and used for construction of the standard curves of rRNA and GAPDH. The concentrations of the compounds that inhibit 50% of the HCV RNA level (EC50) were determined using the MDL® LIFE SCIENCE WORKBENCH® (LSW) Data Analysis software (MDL Information Systems, San Leandro, Calif.) in Microsoft EXCEL®. The amounts of HCV or GAPDH RNAs in the samples were expressed as HCV RNA (copies) or GAPDH (ng), respectively, per μg of total RNA using rRNA as a marker for total RNA measurement.

1b, BB7-M414T replicon = assay: Replicon variant 3-day assay; format: cell-based, Hepatitis C virus
Protocol: (§2) pBB7-replicon variant DNAs were linearized with Sca I, and in vitro transcription was performed using Ambion's […]® T7 High Yield Transcription kit (Austin, Tex.). Purified RNA transcripts were electroporated into Huh-7 cells in quadruplicates using a Biorad GENE PULSER® Electroporation System (Setting: 270V, 950 μF) (Hercules, Calif.). Stably transfected replicon variant cell lines were initially selected with 0.25 mg/ml G418 and stepped up to 1 mg/ml before further testing. One cell plate was stained with Crystal Violet to visualize the number of colonies and determine the colony formation efficiency. Individual cell clones from each plate were pooled and expanded for drug susceptibility testing.
(§3) The contribution of individual amino acid changes on drug resistance was assessed in replicon variants containing single amino acid mutations in NS5B in the background of the genotype 1b, BB7 adaptive replicon (Blight et al. (2000) Science 290:1972-74).
as §1

1b, BB7-C316S replicon = assay: Replicon variant 3-day assay; format: cell-based, Hepatitis C virus
Protocol: as §2, §3, §1

1b, BB7-C316Y replicon = assay: Replicon variant 3-day assay; format: cell-based, Hepatitis C virus; conditions: 1b
Protocol: as §2, §3, §1

1b, BB7-C316N replicon = assay: Replicon variant assay (separate laboratory); format: cell-based; conditions: Hepatitis C virus, read-out: HCV RNA EC50 (nM) ± SD
Protocol: as §2, with “Individual cell clones from each plate were pooled and expanded for drug susceptibility testing.” left out
as §3
Drug susceptibility of the replicon-containing cells to various compounds was evaluated as described previously (Howe et al. (2004) Antimicrobial Agents Chem. 48:4813-21). […] The levels of HCV, glyceraldehyde 3-phosphate dehydrogenase (GAPDH) and ribosomal (rRNA) RNAs were quantified using TAQMAN® (PE Applied Biosystems, Foster City, Calif.) reverse transcriptase PCR reactions. […] The RNA sample was sent to National Genetics Institute to quantify HCV RNA. […]

[2] = system: GAPDH mRNA in Clone A cells; format: cell-based, human; conditions: 0.1 and 1 μM HCV-796, throughout the 16-day period
[3] = target: T1, HCV NS5B enzyme BB7 (C316) (Hepatitis C virus genotype 1b, UniProt Q9WMX2); assay: biochemical
T1 construct: according to the protocol for NS5B-BB7dCT21-His as described; His (C); made in house; host or cells: E. coli
Protocol: (§4) All NS5B enzymes were expressed and purified according to the protocol for NS5B-BB7dCT21-His as described (Howe et al. (2004) Antimicrobial Agents Chem. 48:4813-21). Briefly, expression plasmids were transformed into E. coli cells and NS5B expression was initiated by the addition of isopropyl-beta-D-thiogalactopyranoside (IPTG). After 4 to 6 hours of incubation the cells were harvested and lysed. NS5B enzymes were purified by chromatography using a nickel affinity column (Talon, B D Biosciences, Clontech Laboratories, Inc., Mountain View, Calif.)) followed by a cation exchange column (Poros H S, Applied Biosystems, Foster City, Calif.).

[4] = system: Clone A cells (genotype 1b HCV replicon); assay: Multiple treatments of Clone A cells, HCV RNA level; format: cell-based, Hepatitis C virus
Source text: The amounts of HCV RNA and rRNA in cell aliquots were estimated using a quantitative duplex TAQMAN® RT-PCR. The Y-axis represents HCV copies per μg of total cellular RNA (using rRNA as a marker for quantification). Each data point represents an average value from three replicates.
As a control, Clone A cells were passaged in parallel in the same medium containing 0.5% DMSO without compound. […] An aliquot of the cells from each passage was collected to monitor the HCV RNA levels.

[5] = system: HCV NS5B enzyme BB7-C316N; assay: NS5B polymerase biochemical assay; set-up: species or system Hepatitis C virus genotype 1b; conditions: BB7-C316N vs BB7 (C316)
Protocol: as §4

[6] = target: T2, HCV NS5B enzyme BB7-M414V (Hepatitis C virus genotype 1b, UniProt Q9WMX2, M2833V); assay: NS5B polymerase biochemical assay
T2 construct: NS5B-BB7dCT21-His(M414T/V/I); His (C); made in house; host or cells: E. coli
Protocol: as §4

[7] = system: 1b, BB7 replicon variants with single NS5B mutations; assay: Replicon variant assay, several variants taken together; format: cell-based, Hepatitis C virus
Protocol: as §2, §3, §1

In the case of `CNC(=O)c1c(-c2ccc(F)cc2)oc2cc(N(CCO)S(C)(=O)=O)c(C3CC3)cc12` [HCV-796, 5-cyclopropyl-2-(4-fluorophenyl)-6-[(2-hydroxyethyl)(methylsulfonyl)amino]-N-methyl-1-benzofuran-3-carboxamide], the “Mean log10 Viral Reduction” value ([1]; CloneA cells, 0.7 μM compound, 3-day assay) is reported as 2.1 log10 and 2.1 ± 0.4 (0.7 μM) log10, the EC50 ([1]; CloneA cells, HCV RNA, 72 hours, read-out: EC50 (μM) ± SD) is reported as 0.013 ± 0.013 µM and the EC50 ([1]; hepatoma cells containing a subgenomic genotype 1b HCV replicon, read-out: EC50) is reported as 0.009 µM. The “Fold Resistance” value (1b, BB7-M414T replicon; 1b, BB7-M414T vs 1b, BB7) was 1 fold, the “Viral Load Reduction” value (1b, BB7-M414T replicon; 1b, BB7-M414T, 2240 nM HCV-796, 3-day assay) was 2.0 ± 0.2 log and the “change of susceptibility to HCV-796 (in words)” value (1b, BB7-M414T replicon; M414T replicon vs wild type) was “did not change the susceptibility”. The “Fold Resistance” value (1b, BB7-C316S replicon; BB7-C316S vs 1b, BB7) was 10 fold, the “Viral Load Reduction” value (1b, BB7-C316S replicon; BB7-C316S, 2240 nM HCV-796, 3-day assay) was 1.3 ± 0.1 log and the EC50 (1b, BB7-C316S replicon; Hepatitis C virus, 72 h, BB7-C316S, 3-day assay, read-out: HCV RNA EC50 (nM) ± SD) was 30 nM. For the same molecule, the “Fold Resistance” value (1b, BB7-C316Y replicon; BB7-C316Y vs 1b, BB7) was 166 fold, the “Viral Load Reduction” value (1b, BB7-C316Y replicon; BB7-C316Y, 2240 nM HCV-796, 3-day assay) was 0.9 ± 0.2 log and the EC50 (1b, BB7-C316Y replicon; Hepatitis C virus, 72 h, BB7-C316Y, 3-day assay, read-out: HCV RNA EC50 (nM) ± SD) was 501 nM. For the same molecule, the EC50 (1b, BB7-C316N replicon) was 220 ± 110 nM, the “level of housekeeping gene GAPDH mRNA” value [2] was “remained essentially unchanged” and the IC50 [3] was 40 nM. For the same molecule, the “decrease in the HCV RNA levels” value ([4]; 0.1 μM HCV-796, end of 16-day treatment) was “about 3.6 log10”, the “decrease in the HCV RNA levels” value ([4]; 1 μM HCV-796, end of 16-day treatment) was roughly 4.2 log10 and the “reduction of HCV RNA levels” value ([4]; hepatoma cells containing a subgenomic genotype 1b HCV replicon) was 3-4 log10 HCV copies/μg total RNA. The “Susceptibility Relative to Wild type Enzyme” value [5] was 2-fold less, the IC50 [6] was 0.028 ± 0.002 µM and the “effect on the susceptibility to HCV-796 (in words)” value ([7]; I363V and S368F replicon variants) was “modest effect”. The Fold Reduced Susceptibility ([7]; M414I/V replicon variants, range) was 3-8 fold.

Source: patent US20080182895A1 (priority 2006, published 2008)
